Test results from patent publication US20250387419A1, “PARP INHIBITOR-RESISTANT PATIENT TREATED WITH TH-302” (ASCENTAWITS PHARMACEUTICALS, LTD., priority 2021, published 2025).
Where “and” joins values, the source holds several entries; their conditions need not be identical. Identical values can stand only once. Entries after “also recorded” stand apart in the source; their conditions may differ.

What was measured:
[1] = Safety (body weight) in Capan-1 CDX model (3.1); type: in vivo; parameters: Body weight: unit: g; settings: for Body weight / Body weight change percentage: olaparib 100 mg/kg p.o. QD×30, TH-302 75 mg/kg i.v. QW×3
Protocol: Each nude female BALB/c mouse was subcutaneously inoculated at a lower portion of the right back with 5×10^5 Capan-1 cells resuspended in a 1:1 mixture of PBS and matrigel (0.1 ml per mouse). A total of 64 female mice were inoculated. The inoculation was conducted on Jun. […] The test drug olaparib group was orally and intragastrically administered, once daily for a total of 30 days. Efficacy was evaluated based on relative tumor growth inhibition (TGI) rates (%), and safety was evaluated based on body weight changes and deaths of the animals.

[2] = system: human pancreatic cancer Capan-1 subcutaneous xenograft model; assay: In-depth efficacy in olaparib-resistant pancreatic cancer Capan-1 CDX model (3.2); type: in vivo, mouse; settings: for CR Rate: complete response, animals/group
Protocol: Protocol: Nude BALB/c mice were subcutaneously inoculated with human pancreatic cancer Capan-1 cells, establishing a human pancreatic cancer subcutaneous xenograft model. The mice were divided into 7 groups, 6 in each group: 100 mg/kg of the test drug olaparib as a monotherapy (Group 2); 50 mg/kg of TH-302 as a monotherapy (Group 3, QD); 100 mg/kg of TH-302 as a monotherapy (Group 4); 50 mg/kg of TH-302 as a monotherapy (Group 5, QW); 25 mg/kg of TH-302 as a monotherapy (Group 6); 25 mg/kg TH-302 in combination therapy with 100 mg/kg olaparib (Group 7); and 10% anhydrous ethanol+10% polyoxyethylene (35) castor oil+80% glucose injection solution D5W (pH 7.4) as a vehicle control (Group 1). The vehicle control group and the TH-302 test groups were all administered through tail vein injection. The 50 mg/kg TH-302 monotherapy group (Group 3, QD) was administered once daily for 3 consecutive days. After rest for 4 days and two weeks, the mice were again administered daily for another 3 consecutive days. TH-302 in all the 100 mg/kg (Group 4, QW), 50 mg/kg (Group 5, QW) and 25 mg/kg (Group 6, QW) TH-302 monotherapy groups and 25 mg/kg TH-302+100 mg/kg olaparib combination therapy group (Group 7) was administered once weekly for a total of three weeks. The test drug olaparib in all the groups was orally and intragastrically administered once daily for totally 30 days. Routes of administration, doses and regimens for the human pancreatic cancer Capan-1 animal model are specifically summarized in Table 12.
Tumor growth of the treatment and control groups on different days in the experiment were recorded and shown in Table 13, and corresponding tumor volume growth curves of the mice in respective groups are shown in FIG. 7. Efficacy evaluation was conducted based on relative tumor proliferation rates and relative tumor growth inhibition rates, and the results of efficacy analysis are summarized in Table 14. Body weight changes of the treatment and control groups after administration were recorded to investigate safety of the groups in the human pancreatic cancer Capan-1 subcutaneous model. Body weight change rates of the mice on Day 43 are shown in Table 15, and curves showing body weights of the treatment groups over time are plotted in FIG. 8.
A relative tumor proliferation rate, denoted as T/C %, is calculated as a relative tumor volume or a tumor weight of a treatment group as a percentage of that of the control group at a certain point of time according to:
T/C %=TRTV/CRTV×100% (where TRTV denotes average RTV of the treatment group; CRTV represents average RTV of the vehicle control group; and RTV=Vt/V0, where V0 is a tumor volume of an animal at the time of randomization, and Vt is a tumor volume of the animal after treatment); or
T/C %=TTW/CTW×100% (where TTW is an average tumor weight of the treatment group at the end of the experiment, and CTW is an average tumor weight of the vehicle control group at the end of the experiment).
A relative tumor growth inhibition rate, denoted as TGI (%), is calculated according to: TGI %=(1−T/C)×100% (where T and C are relative tumor volumes (RTV) or tumor weights (TW) of a treatment group and the control group, respectively, at a particular point of time).

[3] = Group 3: 50 mg/kg i.v. QD, Day 43
[4] = Group 4: 100 mg/kg i.v. QW×3, Day 43
[5] = Group 5: 50 mg/kg i.v. QW×3, Day 43
[6] = Group 6: 25 mg/kg i.v. QW×3, Day 43

Cn1c(COP(=O)(NCCBr)NCCBr)cnc1[N+](=O)[O-] [TH-302, evofosfamide]
Body weight ([1]; Day 5): 22.7 | Body weight change percentage ([1]; Day 5): 0.00% | Body weight ([1]; Day 7): 22.0 | Body weight change percentage ([1]; Day 7): −3.01% | Body weight ([1]; Day 9): 22.7 | Body weight change percentage ([1]; Day 9): 0.18% | Body weight ([1]; Day 12): 23.4 | Body weight change percentage ([1]; Day 12): 2.90% | Body weight ([1]; Day 14): 23.6 | Body weight change percentage ([1]; Day 14): 3.78% | Body weight ([1]; Day 16): 23.6 | Body weight change percentage ([1]; Day 16): 4.07% | Body weight ([1]; Day 19): 23.8 | Body weight change percentage ([1]; Day 19): 5.01% | Body weight ([1]; Day 21): 23.7 | Body weight change percentage ([1]; Day 21): 4.49% | Body weight ([1]; Day 23): 23.8 | Body weight change percentage ([1]; Day 23): 4.78% | Body weight ([1]; Day 26): 23.3 | Body weight change percentage ([1]; Day 26): 2.63% | Body weight ([1]; Day 28): 24.1 | Body weight change percentage ([1]; Day 28): 6.22% | Body weight ([1]; Day 30): 24.3 | Body weight change percentage ([1]; Day 30): 6.96% | Body weight ([1]; Day 33): 24.7 | Body weight change percentage ([1]; Day 33): 8.63% | Body weight ([1]; Day 35): 24.7 | Body weight change percentage ([1]; Day 35): 8.65% | Body weight loss / tolerance ([1]; olaparib 100 mg/kg, TH-302 75 mg/kg, combination 100 + 75 mg/kg): No significant body weight losses; also recorded: good tolerance | Tumor volume ([2]; Group 3: 50 mg/kg i.v. QD, Day 9): 194.10 mm^3 | Tumor volume ([2]; Group 3: 50 mg/kg i.v. QD, Day 13): 138.02 mm^3 | Tumor volume ([2]; Group 3: 50 mg/kg i.v. QD, Day 16): 124.61 mm^3 | Tumor volume ([2]; Group 3: 50 mg/kg i.v. QD, Day 20): 105.24 mm^3 | Tumor volume ([2]; Group 3: 50 mg/kg i.v. QD, Day 23): 107.93 mm^3 | Tumor volume ([2]; Group 3: 50 mg/kg i.v. QD, Day 27): 110.53 mm^3 | Tumor volume ([2]; Group 3: 50 mg/kg i.v. QD, Day 30): 123.45 mm^3 | Tumor volume ([2]; Group 3: 50 mg/kg i.v. QD, Day 34): 101.47 mm^3 | Tumor volume ([2]; Group 3: 50 mg/kg i.v. QD, Day 37): 114.69 mm^3 | Tumor volume ([2]; Group 3: 50 mg/kg i.v. QD, Day 41): 134.32 mm^3 | Relative Tumor Volume (x ± S) [2, 3]: 0.99 ± 0.22 | T/C (%) [2, 3]: 10.83% | TGI (%) [2, 3]: 89.17% | Tumor volume ([2]; Group 3: 50 mg/kg i.v. QD, Day 43, 50 mg/kg): 146.99 mm^3 and 146.99 ± 37.96 mm^3 | CR Rate [2, 3]: 0/6 | Tumor volume ([2]; Group 3: 50 mg/kg i.v. QD×3, 4 days off, 2 weeks off, QD×3, Day 6): 146.76 mm^3 | Tumor volume ([2]; Group 4: 100 mg/kg i.v. QW×3, Day 6): 146.05 mm^3 | Tumor volume ([2]; Group 4: 100 mg/kg i.v. QW×3, Day 9): 193.80 mm^3 | Tumor volume ([2]; Group 4: 100 mg/kg i.v. QW×3, Day 13): 123.87 mm^3 | Tumor volume ([2]; Group 4: 100 mg/kg i.v. QW×3, Day 16): 112.22 mm^3 | Tumor volume ([2]; Group 4: 100 mg/kg i.v. QW×3, Day 20): 85.08 mm^3 | Tumor volume ([2]; Group 4: 100 mg/kg i.v. QW×3, Day 23): 59.95 mm^3 | Tumor volume ([2]; Group 4: 100 mg/kg i.v. QW×3, Day 27): 49.03 mm^3 | Tumor volume ([2]; Group 4: 100 mg/kg i.v. QW×3, Day 30): 48.35 mm^3 | Tumor volume ([2]; Group 4: 100 mg/kg i.v. QW×3, Day 34): 65.87 mm^3 | Tumor volume ([2]; Group 4: 100 mg/kg i.v. QW×3, Day 37): 75.54 mm^3 | Tumor volume ([2]; Group 4: 100 mg/kg i.v. QW×3, Day 41): 106.10 mm^3 | Relative Tumor Volume (x ± S) [2, 4]: 0.83 ± 0.17 | T/C (%) [2, 4]: 9.11% | TGI (%) [2, 4]: 90.89% | Tumor volume ([2]; Group 4: 100 mg/kg i.v. QW×3, Day 43, 100 mg/kg): 124.68 mm^3 and 124.68 ± 31.35 mm^3 | CR Rate [2, 4]: 0/6 | Tumor volume ([2]; Group 5: 50 mg/kg i.v. QW×3, Day 6): 147.11 mm^3 | Tumor volume ([2]; Group 5: 50 mg/kg i.v. QW×3, Day 9): 182.60 mm^3 | Tumor volume ([2]; Group 5: 50 mg/kg i.v. QW×3, Day 13): 178.72 mm^3 | Tumor volume ([2]; Group 5: 50 mg/kg i.v. QW×3, Day 16): 181.66 mm^3 | Tumor volume ([2]; Group 5: 50 mg/kg i.v. QW×3, Day 20): 181.56 mm^3 | Tumor volume ([2]; Group 5: 50 mg/kg i.v. QW×3, Day 23): 156.49 mm^3 | Tumor volume ([2]; Group 5: 50 mg/kg i.v. QW×3, Day 27): 152.57 mm^3 | Tumor volume ([2]; Group 5: 50 mg/kg i.v. QW×3, Day 30): 152.13 mm^3 | Tumor volume ([2]; Group 5: 50 mg/kg i.v. QW×3, Day 34): 176.07 mm^3 | Tumor volume ([2]; Group 5: 50 mg/kg i.v. QW×3, Day 37): 198.42 mm^3 | Tumor volume ([2]; Group 5: 50 mg/kg i.v. QW×3, Day 41): 221.92 mm^3 | Complete tumor inhibition rate [2, 5]: 33.3% | Relative Tumor Volume (x ± S) [2, 5]: 1.81 ± 0.64 | T/C (%) [2, 5]: 19.82% | TGI (%) [2, 5]: 80.18% | Tumor volume ([2]; Group 5: 50 mg/kg i.v. QW×3, Day 43, 50 mg/kg): 263.45 mm^3 and 263.45 ± 86.54 mm^3 | CR Rate [2, 5]: 2/6 | Tumor volume ([2]; Group 6: 25 mg/kg i.v. QW×3, Day 6): 146.81 mm^3 | Tumor volume ([2]; Group 6: 25 mg/kg i.v. QW×3, Day 9): 213.60 mm^3 | Tumor volume ([2]; Group 6: 25 mg/kg i.v. QW×3, Day 13): 233.94 mm^3 | Tumor volume ([2]; Group 6: 25 mg/kg i.v. QW×3, Day 16): 277.57 mm^3 | Tumor volume ([2]; Group 6: 25 mg/kg i.v. QW×3, Day 20): 295.46 mm^3 | Tumor volume ([2]; Group 6: 25 mg/kg i.v. QW×3, Day 23): 328.33 mm^3 | Tumor volume ([2]; Group 6: 25 mg/kg i.v. QW×3, Day 27): 373.13 mm^3 | Tumor volume ([2]; Group 6: 25 mg/kg i.v. QW×3, Day 30): 454.44 mm^3 | Tumor volume ([2]; Group 6: 25 mg/kg i.v. QW×3, Day 34): 705.45 mm^3 | Tumor volume ([2]; Group 6: 25 mg/kg i.v. QW×3, Day 37): 886.42 mm^3 | Tumor volume ([2]; Group 6: 25 mg/kg i.v. QW×3, Day 41): 1344.26 mm^3 | Relative Tumor Volume (x ± S) [2, 6]: 11.12 ± 3.31 | T/C (%) [2, 6]: 121.59% | TGI (%) [2, 6]: −21.59% | Tumor volume ([2]; Group 6: 25 mg/kg i.v. QW×3, Day 43, 25 mg/kg): 1521.33 mm^3 and 1521.33 ± 349.46 mm^3 | CR Rate [2, 6]: 0/6
